These results are taken from patent US9636021B2, “Flavonoid compounds of low toxicity for biological imaging applications” (The University of Akron, priority 2014, dated 2017).

In series [1] the test system is zebrafish embryos. As to the kind of experiment: toxicity to labeled zebrafish embryos. The class given is in vivo, zebrafish (Danio rerio). Conditions: morphology and size vs non-labeled control embryos. The source says: (§1) The stable and biocompatible staining property of CDCO enables a long-term visualization method for tracking the development and migration of the YSL.

Series [2] relates to yolk syncytial layer (YSL) of zebrafish embryos. As to the kind of experiment: fluorescence staining of zebrafish embryos and larvae. The class given is in vivo, zebrafish (Danio rerio). On the procedure: Zebrafish embryos at 16 hours post fertilization (hpf) were initially used to study the CDCO's stain ability. A developing zebrafish body is normally covered by chorion and enveloping layer (EVL), which prevent dye molecules permeating into the fish body. In this example, 0.2% DMSO with 10 μM CDCO was infused to the E3 medium to decrease the barrier function of the zebra fish chorion without damaging the fish embryos' structural integrity. […] Thus, it is believed that CDCO selectively stained the YSL region.
To investigate the location of CDCO labeling, zebra fish embryos at nine representative stages of early development were incubated with 10 μM CDCO for 30 minutes at 28.5° C., respectively (FIGS. 3-8). The YSL is initially generated by the collapse/fusion of marginal blastomeres with the yolk cell, and then a thin ring of YSL nuclei forms in front of blastoderm margin at high stage.
The YSL structure can persist on the edge of yolk cell until larval stages. […] This YSL-imaging method can selectively stain the YSL structure from its initial formation, to the dynamic epiboly, and finally to the disappearance of YSL, thus representing a promising tracking agent for zebrafish embryonic development studies.
Wild-type zebrafish embryos were collected and maintained as described in The Zebrafish Book by Monte Westerfield, which is incorporated herein by reference. Zebrafish were kept at 28.5° C. and maintained in E3 embryo medium (15 mM NaCl, 0.5 mM KCl, 1 mM MgSO4, 1 mM CaCl2, 0.15 mM KH2PO4, 0.05 mM Na2HPO4, 0.7 mM NaHCO3, 10^−5% methylene blue; pH 7.5).
For the example represented by FIGS. 1 and 2, 10 μL CDCO stock solution (5 mmol/L CDCO in DMSO) was added into 5 mL E3 medium, then 16 hpf zebra fish embryos were gently transferred to this medium (solution) and incubated at 28.5° C. for 30 min. The dyes which stick to the chorion of the embryos were washed away with E3 medium before imaging by fluorescence microscopy.
For the example represented by FIGS. 3-8, the zebra fish embryos at 2.5 hpf, 4.5 hpf, 6.5 hpf, 7.5 hpf, 8.5 hpf, 11.5 hpf and 16.5 hpf were separately handled following the same procedure.
For the example represented by FIG. 22, the staining time required was 1 hour, since the CDCO was more difficult to penetrate through the older fish skin. Before imaging, the zebrafish were treated with tricaine (anesthetic 0.03%).
All the zebrafish were imaged using fluorescent microscopy (Axio. Vert with X-Cite Series 120Q). The blue-CH filter: excitation 365 nm, beam splitter FT 395 nm, emission 445/50 nm. The green-CH filter: excitation 450-490 nm, beam splitter FT 510 nm, emission 515-565 nm. The red-CH filter: excitation 587/25 nm, beam splitter FT 605 nm, and emission 647/70 nm.)

Series [3] shares this test system. As to the kind of experiment: fluorescence stability and leakage of CDCO in zebrafish embryos. The class given is in vivo, zebrafish (Danio rerio). Conditions: 5 hpf and 18 hpf embryos, 10 μM 30 min, washed, 1 hour in E3 medium. On the procedure: Stability is one of the most important criteria for developing fluorescent imaging agents for living organisms, especially for tracking highly dynamic structures like the YSL.
as §1
For the example represented by FIGS. 9-12, the 4.5 hpf and 17.5 hpf zebrafish embryos were firstly incubated in an E3 medium containing 10 μM CDCO and 0.2% DMSO for 0.5 h, then were washed with E3 medium, followed by incubating in the E3 medium for 1 hour.

For series [4], the target named is T1, bovin serum albumin (BSA) (Bos taurus, UniProt P02769).
T1 construct: purchased Sigma Aldrich (St. Louis, Mo.)
As to the kind of experiment: interaction between CDCO and BSA (absorption, fluorescence, warfarin displacement). The class given is binding, bovine. The source says: The bovin serum albumin (BSA) as the common protein model was used to investigate the interaction between CDCO and proteins. After addition of one equivalent of BSA, the absorption peak at 385 nm was shifted to 402 nm. With the excitation at 400 nm, the fluorescence intensity of CDCO was enhanced about 2-fold, which was accompanied with a large blue-shift (by about 60 nm) from 560 nm to 500 nm. […] However, when the sample was excited at 570 nm, a red/near-infrared fluorescence peak was detected at 700 nm. In order to determine the location of CDCO on BSA, the displacement of CDCO was carried out by addition of warfarin, which is known to strongly bind to the warfarin binding site in Domain II A of BSA. […] It is believed that the emission at 750 nm might be related to the complicated charge and energy transfer inside dye-BSA complex.

The test system of series [5] is zebrafish vitellogenin. As to the kind of experiment: interaction between CDCO and zebrafish vitellogenin. The class given is binding. On the procedure:
^1H NMR and ^13C NMR spectra were obtained using an AVANCE II apparatus from Bruker Corporation (Billerica, Mass.). UV-vis spectra were acquired on an 8453 diode-array spectrometer from Hewlett-Packard (Palo Alto, Calif.). Fluorescence spectra were measured by RF-5301 PC spectrometer from Shimadzu Corporation (Kyoto, Japan). Electrospray ionization (ESI) mass spectra were acquired with a Synapt HDMS quadrupole/time-of-flight (Q/ToF) mass spectrometer from Waters Corporation (Milford, Mass.). All the solvents for the fluorescence experiments were analytic grade, which were purchased from Fisher Scientific (Waltham, Mass.) and used without further purification. Bovine serum albumin was purchased from Sigma Aldrich (St. Louis, Mo.). Zebrafish vitellogenin standard was purchased from Cayman Europe Biosense Laboratories (No. V01008301). The fluorescence imaging was obtained by X-Cite™ Series 120Q fluorescence microscope from Lumen Dynamics. For the blue channel filter: excitation 365 nm, beam splitter FT 395 nm, emission 445/50 nm. For the green channel filter: excitation 450-490 nm, beam splitter FT 510 nm, emission 515-565 nm. For the red channel filter: excitation 587/25 nm, beam splitter FT 605 nm, emission 647/70 nm.
Zebrafish embryos at 16 hours post fertilization (hpf) were initially used to study the CDCO's stain ability. […]

Series [6] has as its target bovine serum albumin (BSA) (Bos taurus, UniProt P02769). As to the kind of experiment: fluorescence turn-on with BSA in PBS buffer. The class given is binding. On the procedure: In the aqueous buffer (0.5% DMSO, 10 mM of PBS, pH=7.4), the BSA binding-induced fluorescence turn-on was so large that it could be easily seen by naked eye. […] The intramolecular charge transfer along the D-A conjugated backbone plays a very important role in the environment-sensitivity of the flavone. All the evidence consistently pointed to the flavone dye entering the hydrophobic site of BSA.
Generally, the detection limit can be defined as the analyte concentration at which a 10% increase in fluorescence emission can be measured.
Therefore, the detection limits of compounds 1-6 were 2.6, 0.14, 0.59, 0.09, 14, and 3.4 μg/mL, respectively. For Off/On type fluorescent sensor, the Signal-to-Noise (S/N) ratio above 3:1 is considered reliable for visual evaluation. The visual recognizable detection limits of compounds 1-6 were calculated as 78, 4.2, 17.7, 2.7, 420, and 102 μg/mL, respectively. The reference range for serum albumin concentration in human blood plasma is approximately 35-50 mg/mL. Even in fish, the concentration of serum albumins can reach 0.5-5 mg/mL. The detection limits of the compounds were much lower than serum albumin concentration, indicating the capability for actual blood sample testing.

A short description of series [7]: fluorescence quenching by water. In kind it is physicochemical. The text has this:
Upon excitation via photon irradiation, the dipole moment increased dramatically because of the charge transfer from D-A structure in compound 1. An increase in the solvent polarity could relax the excited molecules more efficiently, thus decreasing the energy of the excited state of fluorophore and resulting in a red-shifted emission. […] The fluorescence of compound 1 was nearly 100% quenched by water due to intermolecular electron or proton transfer. Non-fluorescence in water raises the possibility of eliminating the washing process in the protein detection procedure, since the free dye molecules gives negligible background signal in water.

The nature of series [8]: absorbance and fluorescence spectra in DMSO. The class given is physicochemical. The text has this:
The absorbance and fluorescence spectra of compounds 1-6 in dimethyl sulfoxide (DMSO) were investigated and the results are in Table 1.

The mark [9] stands for this setting: embryos at early development stages, 10 μM, 30 minutes, 28.5° C.
Where [10] appears, read: with BSA 1.0 mg/ml, 10 μM dye, 10 mM PBS, 0.5% DMSO, pH 7.4.
[11] abbreviates: without BSA, 10 μM dye, 10 mM PBS, 0.5% DMSO, pH 7.4.

Each structure is given as a SMILES string.

T1 sequence (P02769 25-607): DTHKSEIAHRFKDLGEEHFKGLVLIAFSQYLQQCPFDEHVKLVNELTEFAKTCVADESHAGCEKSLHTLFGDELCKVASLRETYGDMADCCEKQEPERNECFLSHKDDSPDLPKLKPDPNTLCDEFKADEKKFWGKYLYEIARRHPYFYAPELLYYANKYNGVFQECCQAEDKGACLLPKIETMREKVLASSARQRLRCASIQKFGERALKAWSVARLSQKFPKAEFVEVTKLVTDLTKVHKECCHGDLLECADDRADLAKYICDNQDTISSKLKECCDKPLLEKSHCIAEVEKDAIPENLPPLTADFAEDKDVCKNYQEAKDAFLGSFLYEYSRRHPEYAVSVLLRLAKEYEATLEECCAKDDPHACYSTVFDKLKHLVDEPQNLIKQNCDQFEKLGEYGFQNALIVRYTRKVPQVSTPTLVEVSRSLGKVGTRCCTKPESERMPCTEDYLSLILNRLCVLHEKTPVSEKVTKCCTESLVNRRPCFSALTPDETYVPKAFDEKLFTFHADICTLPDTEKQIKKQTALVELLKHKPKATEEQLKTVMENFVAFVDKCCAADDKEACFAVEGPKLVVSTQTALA
Chain of bovine serum albumin (BSA) (P02769 25-607): as above

Turning to `CN(C)c1ccc(-c2oc3ccccc3c(=O)c2OCc2ccc(CCl)cc2)cc1` [CDCO, 3-(4-(chloromethyl)benzyloxy)-2-(4-(dimethylamino)phenyl)-4H-chromen-4-one], the “toxicity to labeled embryos” value in series [1] is given as “almost no apparent toxicity”. Besides, in series [2] (10 μM, 0.2% DMSO in E3 medium, 30 minutes), the “staining of 16 hpf zebrafish embryos” value is “stained specifically the yolk-related region in the embryos”. In series [2] (setting [9]), the “localisation of dye during embryo development” value is listed as “consistently confined to the YSL without significant leakage to the blastoderm” and the “staining of the yolk cell” value is “barely stained”. Moreover, the “fluorescent labeling of 36 hpf embryos” value in series [2] (incubated 1 hour) was “strong red fluorescence as well as blue and green emission in the yolk region”. Besides, the “fluorescent labeling of 7 days old larval zebrafish” value in series [2] (incubated 1 hour, YSL completely absorbed) was “almost no red fluorescence was observed”. In series [3], the “fluorescence leakage after washing” value is given as “no significant fluorescence leakage to blastoderm or somite”. Further, in series [4] (5-fold excess of warfarin), the “effect of warfarin on red fluorescence” value is recorded as “did not completely quench the red fluorescence” and the “emission after warfarin displacement” value was 750 nm. In series [4] (after addition of one equivalent of BSA), the absorption peak stood at 402 nm. For the same molecule, the absorption peak in series [4] (before addition of BSA) was 385 nm. This molecule had a fluorescence emission in series [4] (excitation 400 nm, before BSA) of 560 nm. Further, the blue-shift in fluorescence result in series [4] (excitation 400 nm, on addition of BSA) is given as “about 60 nm”. Moreover, the fluorescence emission in series [4] (excitation 400 nm, with one equivalent of BSA) is on record as 500 nm. In series [4] (one equivalent of BSA, excitation at 400 nm), the fluorescence intensity enhancement entry is “about 2 fold”. For the same molecule, the red/near-infrared fluorescence peak in series [4] (with BSA, excited at 570 nm) turned out to be 700 nm. Also, in series [5], the “red fluorescence with zebrafish vitellogenin” value is “almost no red fluorescence”.
With `CN(C)c1ccc(-c2oc3ccccc3c(=O)c2O)cc1` [compound 1, 2-(4-(dimethylamino)phenyl)-3-hydroxy-4H-chromen-4-one], in series [6] (BSA), the “detection limit (10% increase in fluorescence emission)” value was 2.6 µg/mL and the “visual recognizable detection limit (S/N above 3:1)” value came to 78 µg/mL. For the same molecule, the “F(+)/F(−) fluorescence intensity with BSA / without BSA” value in series [6] (BSA 1.0 mg/ml, 10 μM dye, 10 mM PBS, 0.5% DMSO, pH 7.4) is given as 38. Besides, in series [6] (setting [10]), the “λabs(+)” value is given as 416 nm and the “λem(+)” value came to 556 nm. In addition, in series [6] (setting [11]), the “λabs(−)” value is recorded as 403 nm and the “λem(−)” value was 560 nm. In series [7], the “fluorescence quenched by water” value is on record as ~100%. In series [8], the Φ is 10.0% and the λabs is given as 403 nm.
